{"source": "patent US8263526B2", "about": "“Compositions of keratin hydrolysate and microbes for pest control applications” (priority 2006, dated 2012)", "format_in_all_cases": "cell-based", "key": {"[1]": {"test_system": "blastospores of Paecilomyces fumosoroseus ARSEF 3581", "experiment": "% germination assay (6-hr) of blastospores in surfactant solutions", "experimental": "(§1) Blastospore suspensions (˜1×10^8 blastospores/ml) were prepared by adding 1.3 g of the dried blastospores of P. fumosoroseus formulate to 100 ml sterile deionized water. The spore suspension was stirred for 30 minutes, and then allowed to stand 1 minute to allow the diatomaceous earth to settle. Without disturbing the diatomaceous earth, 30 ml of the spore suspension was removed and transferred to a sterile bottle. The blastospore concentration of the suspension was measured using a hemacytometer.\nA one ml aliquot of the previously described blastospore suspension was added to 49 ml of the foaming agents in a 250 ml baffled Erlenmeyer flask. The blastospore suspensions were incubated in a rotary shaker incubator (Innova 4000, New Brunswick) at 300 RPM and 28° C. for 6 hours. Blastospore germination was measured by microscopic observation of the germ tube formation. Four slides were prepared from the incubated blastospore suspension using separate pipets. Germ tube formation was measured for 100 blastospores on each slide. A total of 400 blastospores were counted from each flask."}, "[2]": {"test_system": "blastospores of Paecilomyces fumosoroseus ARSEF 3581", "experiment": "Conidia production assay on water agar in the dark", "details": "2 weeks in the dark", "experimental": "For the conidia production assay, 100 ul of the blastospore suspension was spread onto WA plates (Water Agar: 20 g/L water.) and incubated 2 weeks in the dark. Three plates were used for each treatment. The drop was spread with a sterile plastic spreader and incubated at 23° C. in the dark for 2 weeks. After two weeks, 5 ml of sterile water was added to each plate, and a sterile loop was used to release the conidia from the fungal growth. The spore suspension was drawn up with a pipet and the volume measured. The conidia concentration was measured using a hemacytometer. Our previous determination of the blastospore concentration in the suspension applied to the […] plates was used to calculate conidia production/blastospore."}, "[3]": {"test_system": "blastospores of Paecilomyces fumosoroseus ARSEF 3581", "experiment": "Viability assay, CFU spread plate after 1 hour exposure to surfactant", "details": "in words", "experimental": "as §1\nFor these studies, 1 ml of the previously described blastospore suspension was added to 49 ml of the foaming agents and held for 1 hour at room temperature. After the one hour exposure period, colony forming units (cfu) were determined for blastospore suspensions using standard spread plating techniques. Appropriate dilutions of blastospore suspensions were spread on SDMA (Sabouraud dextrose maltose agar) plates, 10 g Bacto peptone, 20 g Difco dextrose, 20 g Sigma maltose, and 15 g Bacto agar per 1 L water. Three plates were used for each dilution. Plates were incubated at 28° C. for 2-3 days and CFUs counted."}}, "note": "Read-outs that look alike come from different tables or passages of the source."}
{"compound": "sodium lauryl ether sulfate (2-mole) [Na Lauryl ether sulfate (2-mole)]", "values": [{"measurement": "% viability 6-hr germination", "setting": "[1]", "result": 0.0, "unit": "%"}]}
{"compound": "CCCCCCCCCCCCCCCC[N+](C)(C)C.[Br-]", "note": "[hexadecyl trimethylammonium Br, hexadecyl trimethylammonium bromide]", "values": [{"measurement": "% viability 6-hr germination", "setting": "[1]; surfactant 0.5% (w/w), 6 hours, 28° C.", "result": 0.0, "unit": "%"}]}
{"compound": "sodium alpha olefin sulfonate [Na alpha olefin sulfonate]", "values": [{"measurement": "% viability 6-hr germination", "setting": "[1]", "result": 0.0, "unit": "%"}]}
{"compound": "Triton x-100", "values": [{"measurement": "conidia production (conidia/blastospore)", "setting": "[2]; surfactant 0.5% (w/w)", "result": 95, "unit": "conidia/blastospore"}, {"measurement": "conidia production (conidia/blastospore)", "setting": "[2]; surfactant 1.0% (w/w)", "result": 57, "unit": "conidia/blastospore"}, {"measurement": "conidia production (conidia/blastospore)", "setting": "[2]; surfactant 2.0% (w/w)", "result": 27, "unit": "conidia/blastospore"}, {"measurement": "cfu formation relative to the water control", "setting": "[3]", "result": "comparable or better cfu formation than the water control"}, {"measurement": "germination of blastospores relative to the water-only control", "setting": "[1]; 6-hr germination assay, in words", "result": "strongly inhibited"}]}
